In patent publication US3945993A, “Derivatives of polyene macrolide antibiotics” (Rutgers Research and Educational Foundation, priority 1971, dated 1976):
Values after ≈ are worked out from the molar mass of the structure shown. Counter-ions that a name gives are not always drawn. Like-named read-outs stand apart in the source and are kept apart here.

Key:
[1] = Water solubility of acid salts of the esters by the dry weight method; format: physicochemical; settings: acid addition salts (hydrochlorides); for solubility: water
[2] = Qualitative solubility of esters and salts in water and organic solvents; format: physicochemical
Mucor rouxii = assay: Minimum inhibitory concentration (Mucor rouxii); format: cell-based; settings: Amylomyces rouxii
Source text: (§1) As indicated, numerous tests have shown that the antimicrobial activity of the present derivatives, both in the immediate ester form of esterification and in the final water-soluble salt form, is substantially the same as that of the base antibiotics. […] In the table the numerical values represent minimum inhibitory concentration and thus the lower the value, the greater the activity in inhibiting growth of the organism.
(§2) In the case of amphotericin B this set of tests was extended to other microorganisms: the minimum inhibitory concentrations in micrograms per ml. for amphotericin B and its methyl ester hydrochloride respectively were 0.5 and 0.5 against Candida albicans, 0.5 and 0.5 against Mucor rouxii, and 0.20 and 0.25 against Aspergillus niger.

Aspergillus niger = assay: Minimum inhibitory concentration (Aspergillus niger); format: cell-based
Source text: as §1, §2

[3] = True water solubility of base polyene antibiotics by DMSO dilution and ultra-violet spectrum; format: physicochemical; settings: for solubility: water
Saccharomyces cerevisiae = assay: Minimum inhibitory concentration, in vitro antifungal potency (Saccharomyces cerevisiae); format: cell-based; settings: for MIC: read-out: Min. Inhibitory Conc.
Source text: as §1

[4] = True solution in water judged by ultra-violet spectrum (FIG. 5); format: physicochemical; settings: 7 micrograms per ml. in water
Source text: The true solubility of the present derivatives is further illustrated by FIG. 5, where curve A is the ultraviolet spectrum for amphotericin B methyl ester hydrochloride in water, 7 micrograms per ml., and curve B is a like spectrum for the same concentration of the base amphotericin B in water.

[5] = tested on: Saccharomyces cerevisiae, Candida albicans and Aspergillus niger; assay: Standard in vitro tests of antimicrobial activity of derivative and base against representative organisms; format: cell-based; settings: result in words
Source text: as §1

Candida albicans = assay: Minimum inhibitory concentration (Candida albicans); format: cell-based
Source text: as §1, §2

[6] = base antibiotics, calculated from UV after ten fold dilution of saturated water solution with dimethyl sulfoxide

## CCOC(=O)[C@H]1[C@@H]2C[C@@H](O[C@@H]3O[C@H](C)[C@@H](O)[C@H](N)[C@@H]3O)/C=C/C=C/C=C/C=C/C=C/C=C/C=C/[C@H](C)[C@@H](O)[C@@H](C)[C@H](C)OC(=O)C[C@H](O)C[C@H](O)CC[C@@H](O)[C@H](O)C[C@H](O)C[C@](O)(C[C@@H]1O)O2 [Amphotericin B ethyl ester hydrochloride, amphotericin B ethyl ester hydrochloride]
[1]
  solubility: > 75 mg/mL

## COC(=O)[C@H]1[C@@H]2C[C@@H](O[C@@H]3O[C@H](C)[C@@H](O)[C@H](N)[C@@H]3O)/C=C/C=C/C=C/C=C/C=C/C=C/C=C/[C@H](C)[C@@H](O)[C@@H](C)[C@H](C)OC(=O)C[C@H](O)C[C@H](O)CC[C@@H](O)[C@H](O)C[C@H](O)C[C@](O)(C[C@@H]1O)O2 [Amphotericin B methyl ester, amphotericin B methyl ester]
[2]; ethyl acetate
  solubility in ethyl acetate: slightly soluble
[2]; methyl alcohol, ethyl alcohol, tetrahydrofurane, dimethyl formamide and dimethyl sulfoxide
  solubility in organic solvents: soluble
[2]; petroleum ether and ethyl ether
  solubility in petroleum ether and ethyl ether: insoluble
[2]; water
  solubility in water (in words): slightly soluble

## C[C@@H]1[C@H](O)[C@@H](C)/C=C/C=C/C=C/C=C/C=C/C=C/C=C/[C@H](O[C@@H]2O[C@H](C)[C@@H](O)[C@H](N)[C@@H]2O)C[C@@H]2O[C@](O)(C[C@@H](O)C[C@@H](O)[C@H](O)CC[C@@H](O)C[C@@H](O)CC(=O)O[C@H]1C)C[C@H](O)[C@H]2C(=O)O [Amphotericin B, amphotericin B, reference compound]
Mucor rouxii
  MIC: 0.5 µg/mL (≈ 0.541 µM)
Aspergillus niger
  MIC: 0.2 µg/mL (≈ 0.216 µM)
[3]; base antibiotics, calculated from UV after ten fold dilution of saturated water solution with dimethyl sulfoxide, read-out: Solubility in water
  solubility: 0.0017 mg/mL (≈ 1.84 µM)
Saccharomyces cerevisiae
  MIC: 0.25 µg/mL (≈ 0.271 µM)
[4]
  state in water by ultraviolet spectrum: did not dissolve and was therefore a mere dispersion

## C[C@@H]1[C@H](O)[C@@H](C)/C=C/C=C/CC/C=C/C=C/C=C/C=C/C(O[C@H]2O[C@H](C)[C@@H](O)[C@H](N)[C@@H]2O)CC2O[C@](O)(CC(O)C(O)CCC(O)CC(O)CC(O)CC(=O)O[C@H]1C)CC(O)C2C(=O)O (some centres unmarked) [Nystatin, reference compound]
[3]; [6]
  Solubility in water: 0.039 mg/mL (≈ 42.1 µM)
Saccharomyces cerevisiae; in vitro
  Min. Inhibitory Conc.: 3.00 micrograms/ml.

## COC(=O)C1C(O)CC2(O)CC(O)CC3OC3/C=C/C(=O)OC(C)C/C=C/C=C/C=C/C=C/C(OC3OC(C)C(O)C(N)C3O)CC1O2 (centres unmarked) [Pimaricin methyl ester hydrochloride]
[1]
  solubility: > 80 mg/mL

## COC(=O)C1C(O)CC2(O)CC(O)CC3OC3/C=C/C(=O)OC(C)C/C=C/C=C/C=C/C=C/C(OC3OC(C)C(O)C(N)C3O)CC1O2 (centres unmarked) [Pimaricin methyl ester]
Saccharomyces cerevisiae; in vitro
  MIC: 4 µg/mL (≈ 5.88 µM)

## C[C@@H]1C/C=C/C=C/C=C/C=C/[C@H](O[C@@H]2O[C@H](C)[C@@H](O)[C@H](N)[C@@H]2O)C[C@@H]2O[C@](O)(C[C@@H](O)C[C@H]3O[C@@H]3/C=C/C(=O)O1)C[C@H](O)[C@H]2C(=O)O [Pimaricin, reference compound]
[3]
  solubility: 0.052 mg/mL (≈ 78.1 µM)
Saccharomyces cerevisiae; in vitro
  MIC: 3.5 µg/mL (≈ 5.26 µM)

## COC(=O)[C@H]1[C@@H]2C[C@@H](O[C@@H]3O[C@H](C)[C@@H](O)[C@H](N)[C@@H]3O)/C=C/C=C/C=C/C=C/C=C/C=C/C=C/[C@H](C)[C@@H](O)[C@@H](C)[C@H](C)OC(=O)C[C@H](O)C[C@H](O)CC[C@@H](O)[C@H](O)C[C@H](O)C[C@](O)(C[C@@H]1O)O2 [amphotericin B methyl ester hydrochloride]
Mucor rouxii
  MIC: 0.5 µg/mL
[5]
  antimicrobial activity compared with the base antibiotic: very substantial antimicrobial activity, essentially the same, i.e., quantitatively, as the base antibiotic
Aspergillus niger
  MIC: 0.25 µg/mL
[1]; hydrochloride
  Solubility in water: > 75 mg/mL
[1]
  solubility: > 75 mg/mL
Candida albicans
  MIC: 0.5 µg/mL
Saccharomyces cerevisiae
  MIC: 0.25 µg/mL
[4]
  state in water by ultraviolet spectrum: true solution in water

## Candicidin [reference compound]
[3]; [6]
  Solubility in water: 0.032 mg/mL
Saccharomyces cerevisiae; in vitro
  Min. Inhibitory Conc.: 0.020 micrograms/ml.

## Candicidin methyl ester hydrochloride
[1]
  Solubility in water: > 20.0 mg/mL
Saccharomyces cerevisiae; in vitro
  Min. Inhibitory Conc.: 0.025 micrograms/ml.

## Candidin
[3]; [6]
  Solubility in water: 0.116 mg/mL

## Candidin methyl ester hydrochloride
[1]
  Solubility in water: > 50.0 mg/mL

## Candimycin [reference compound]
Saccharomyces cerevisiae; in vitro
  Min. Inhibitory Conc.: 0.025 micrograms/ml.

## Candimycin methyl ester
Saccharomyces cerevisiae; in vitro
  Min. Inhibitory Conc.: 0.025 micrograms/ml.

## Hamycin
[3]; [6]
  Solubility in water: 0.032 mg/mL

## Hamycin methyl ester hydrochloride
[1]
  Solubility in water: > 20.0 mg/mL

## Mediocidin [reference compound]
[3]; [6]
  Solubility in water: 0.072 mg/mL
Saccharomyces cerevisiae; in vitro
  Min. Inhibitory Conc.: 0.035 micrograms/ml.

## Mediocidin methyl ester
Saccharomyces cerevisiae; in vitro
  Min. Inhibitory Conc.: 0.030 micrograms/ml.

## Nystatin methyl ester
Saccharomyces cerevisiae; in vitro
  Min. Inhibitory Conc.: 4.00 micrograms/ml.

## Nystatin methyl ester hydrochloride
[1]
  Solubility in water: > 80.0 mg/mL

## Trichomycin [reference compound]
[3]; [6]
  Solubility in water: 0.046 mg/mL
Saccharomyces cerevisiae; in vitro
  Min. Inhibitory Conc.: 0.030 micrograms/ml.

## Trichomycin methyl ester hydrochloride
[1]
  Solubility in water: > 20.0 mg/mL
Saccharomyces cerevisiae; in vitro
  Min. Inhibitory Conc.: 0.030 micrograms/ml.

## mediocidin methyl ester hydrochloride
[1]
  Solubility in water: > 50.0 mg/mL
